Reference: the supplement of paper PMC11208160

Assay: recombinant UMI read abundance after kanamycin selection (control-corrected) (log10(CPM+1)); higher = more efficient recombination; extreme values may be limits of the assay; sequences stand for … in AGTGCAGAGAAAATCGGCCAGTTTTCTCTGCCTGCAGTCCGCATGCCGTGGGACCCCTTGGGTTCTAACCTGTTGCCTAGATTTATGCAGCGGACTGCCTTTCTCCCAAAGTGATAAACCGG…AGGTTGGTTTCACT; site = the 11-nt donor
Summary of the method: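 In Escherichia coli, a pool of donor and donor-binding-loop pairs, each with a 12-nt UMI, was tested for the IS621 bridge recombinase. Plating was on IPTG (0.07 mM) plus kanamycin, or without selection, in two replicates. Recombinant UMIs were amplified by PCR across the donor–target junction and sequenced, and counts were reported as log10(CPM+1) after averaging and control-derived scaling.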
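Also: IS621 bridge recombinase in Escherichia coli cells against a fixed T5 target plasmid.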

Sequence	recombinant UMI read abundance (log10)
AGAAATGCATGGACCGGTTTTCCCGGTAATCCGTATTTGCT (site AGAAAGGCTAG)	0
AGAAATGCATGGACCGGTTTTCCCGGTAATCCGTATTTGCT (site AGAAATGCTAG)	2.23
AGAAATTCATGGACCGGTTTTCCCGGTAATCCGTATTTGCG (site AGAAATTCTCG)	1.94
AGAACCGCATGGACCGGTTTTCCCGGTAATCCGTATTTGAC (site AGAACCGCTGT)	2.35
AGAACGGCATGGACCGGTTTTCCCGGTAATCCGTATTTGCG (site AGAACGGCTCG)	1.75
AGAACTACATGGACCGGTTTTCCCGGTAATCCGTATTTGGG (site AGAACTACTCC)	0.434
AGAAGCACATGGACCGGTTTTCCCGGTAATCCGTATTTGTC (site AGAAGCACTGA)	3.13
AGAAGCCCATGGACCGGTTTTCCCGGTAATCCGTATTTGTC (site AGAAGCCCTGA)	1.43
AGAAGGCCATGGACCGGTTTTCCCGGTAATCCGTATTTGAC (site AAAAGGCCTGT)	0
AGAAGGCCATGGACCGGTTTTCCCGGTAATCCGTATTTGAC (site ACAAGGCCTGT)	0
AGAAGGCCATGGACCGGTTTTCCCGGTAATCCGTATTTGAC (site AGAAGGCCTGT)	0
AGAAGGCCATGGACCGGTTTTCCCGGTAATCCGTATTTGAC (site ATAAGGCCTGT)	0
AGAATGGCATGGACCGGTTTTCCCGGTAATCCGTATTTGCT (site AGAAAGGCTAG)	1.89
AGAATGGCATGGACCGGTTTTCCCGGTAATCCGTATTTGCT (site AGAACGGCTAG)	1.47
AGAATGGCATGGACCGGTTTTCCCGGTAATCCGTATTTGCT (site AGAAGGGCTAG)	0.34
AGAATGGCATGGACCGGTTTTCCCGGTAATCCGTATTTGCT (site AGAATGGCTAG)	2.19
AGACAGGCATGGACCGGTTTTCCCGGTAATCCGTATTTGCT (site AGAAAGGCTAG)	0
AGACAGGCATGGACCGGTTTTCCCGGTAATCCGTATTTGCT (site AGACAGGCTAG)	2.44
AGACAGGCATGGACCGGTTTTCCCGGTAATCCGTATTTGCT (site AGAGAGGCTAG)	0
AGACAGGCATGGACCGGTTTTCCCGGTAATCCGTATTTGCT (site AGATAGGCTAG)	0.555
AGACTTGCATGGACCGGTTTTCCCGGTAATCCGTATTTGCA (site AGACTTGCTTG)	0
AGACTTTCATGGACCGGTTTTCCCGGTAATCCGTATTTGAC (site AGACTTTCTGT)	0
AGACTTTCATGGACCGGTTTTCCCGGTAATCCGTATTTGAC (site AGCCTTTCTGT)	0

Sequence	recombinant UMI read abundance (log10)
AGACTTTCATGGACCGGTTTTCCCGGTAATCCGTATTTGAC (site AGGCTTTCTGT)	0.503
AGACTTTCATGGACCGGTTTTCCCGGTAATCCGTATTTGAC (site AGTCTTTCTGT)	0
AGAGCATCATGGACCGGTTTTCCCGGTAATCCGTATTTGAA (site AGAGCATCTTT)	2.33
AGAGCCCCATGGACCGGTTTTCCCGGTAATCCGTATTTGCA (site AGAGCCCCTTG)	1.71
AGAGGACCATGGACCGGTTTTCCCGGTAATCCGTATTTGGG (site AGAGGACCTCC)	0.0119
AGAGGACCATGGACCGGTTTTCCCGGTAATCCGTATTTGGG (site CGAGGACCTCC)	0.0261
AGAGGACCATGGACCGGTTTTCCCGGTAATCCGTATTTGGG (site GGAGGACCTCC)	0.0142
AGAGGACCATGGACCGGTTTTCCCGGTAATCCGTATTTGGG (site TGAGGACCTCC)	0.0116
AGAGTATCATGGACCGGTTTTCCCGGTAATCCGTATTTGTG (site AGAGTATCTCA)	2.98
AGATAATCATGGACCGGTTTTCCCGGTAATCCGTATTTGTC (site AGATAATCTGA)	2.16
AGATAGGCATGGACCGGTTTTCCCGGTAATCCGTATTTGCA (site AGATAGGCTTG)	2.72
AGATCATCATGGACCGGTTTTCCCGGTAATCCGTATTTGTT (site AGATCATCTAA)	0.929
AGATCATCATGGACCGGTTTTCCCGGTAATCCGTATTTGTT (site CGATCATCTAG)	0
AGATCCGCATGGACCGGTTTTCCCGGTAATCCGTATTTGGT (site AGATCCGCTAC)	0.811
AGATGGCCATGGACCGGTTTTCCCGGTAATCCGTATTTGTG (site AGATGGCCTCA)	0.0259
AGATTATCATGGACCGGTTTTCCCGGTAATCCGTATTTGCA (site ACAGTATCTTG)	2.54
AGATTATCATGGACCGGTTTTCCCGGTAATCCGTATTTGCA (site AGATTATCTTG)	2.9
AGATTCGCATGGACCGGTTTTCCCGGTAATCCGTATTTGGA (site AGATTCGCTTC)	1.89
AGATTTACATGGACCGGTTTTCCCGGTAATCCGTATTTGGA (site AGATTTACTTC)	0.959
AGCAAAACATGGACCGGTTTTCCCGGTAATCCGTATTTGCA (site AGCAAAACTTG)	0.735
AGCAAGGCATGGACCGGTTTTCCCGGTAATCCGTATTTGCA (site AGCAAGGCTTG)	2.5
AGCAAGGCATGGACCGGTTTTCCCGGTAATCCGTATTTGCA (site AGGAAGACTTG)	0.0151
AGCACAGCATGGACCGGTTTTCCCGGTAATCCGTATTTGAC (site AGCACAGCTGT)	2.8

Sequence	recombinant UMI read abundance (log10)
AGCACAGCATGGACCGGTTTTCCCGGTAATCCGTATTTGGG (site AGCACAGCTCC)	0.0126
AGCACAGCATGGACCGGTTTTCCCGGTAATCCGTATTTGGG (site AGCCCAGCTCC)	0.00716
AGCACAGCATGGACCGGTTTTCCCGGTAATCCGTATTTGGG (site AGCGCAGCTCC)	0.0219
AGCACAGCATGGACCGGTTTTCCCGGTAATCCGTATTTGGG (site AGCTCAGCTCC)	0
AGCACCGCATGGACCGGTTTTCCCGGTAATCCGTATTTGGG (site AGCACCGCTCC)	0.0364
AGCACGACATGGACCGGTTTTCCCGGTAATCCGTATTTGCA (site AGCACGACTTG)	2.02
AGCACGACATGGACCGGTTTTCCCGGTAATCCGTATTTGCA (site AGGAAGACTTG)	0
AGCCAAACATGGACCGGTTTTCCCGGTAATCCGTATTTGAA (site AGCCAAACTTT)	1.32
AGCCCCTCATGGACCGGTTTTCCCGGTAATCCGTATTTGCA (site AGCCCCTCTTG)	2.75
AGCCCTCCATGGACCGGTTTTCCCGGTAATCCGTATTTGTT (site AGCCCTCCTAA)	0.00736
AGCCGAGCATGGACCGGTTTTCCCGGTAATCCGTATTTGTT (site AGCCAAGCTAA)	0.398
AGCCGAGCATGGACCGGTTTTCCCGGTAATCCGTATTTGTT (site AGCCCAGCTAA)	0.0229
AGCCGAGCATGGACCGGTTTTCCCGGTAATCCGTATTTGTT (site AGCCGAGCTAA)	0.837
AGCCGAGCATGGACCGGTTTTCCCGGTAATCCGTATTTGTT (site AGCCTAGCTAA)	0.00511
AGCCGTTCATGGACCGGTTTTCCCGGTAATCCGTATTTGAC (site AGCCATTCTGT)	0
AGCCGTTCATGGACCGGTTTTCCCGGTAATCCGTATTTGAC (site AGCCCTTCTGT)	0
AGCCGTTCATGGACCGGTTTTCCCGGTAATCCGTATTTGAC (site AGCCGTTCTGT)	1.9
AGCCGTTCATGGACCGGTTTTCCCGGTAATCCGTATTTGAC (site AGCCTTTCTGT)	0
AGCCTAGCATGGACCGGTTTTCCCGGTAATCCGTATTTGCT (site AGCCTAGCTAA)	0.0111
AGCCTAGCATGGACCGGTTTTCCCGGTAATCCGTATTTGCT (site AGCCTAGCTAC)	0.0198
AGCCTAGCATGGACCGGTTTTCCCGGTAATCCGTATTTGCT (site AGCCTAGCTAG)	0.00934
AGCCTAGCATGGACCGGTTTTCCCGGTAATCCGTATTTGCT (site AGCCTAGCTAT)	0
